Measured values published in patent US9867372B2, “Tetrazolinone compound and use of same” (SUMITOMO CHEMICAL COMPANY, LIMITED, priority 2013, dated 2018).

System: cucumber powdery mildew fungus (Sphaerotheca fuliginea, a QoI-resistant strain, cytochrome b position 143 mutated from glycine to alanine)
Format: in vivo
Settings: 200 ppm, QoI-resistant strain (Test Example 2, Comparative Example 2)

Cn1nnn(-c2ccccc2COc2cccc(-c3ccccc3)c2)c1=O [1-[2-(biphenyl-3-yloxymethyl)-phenyl]-4-methyl-1,4-dihydrotetrazol-5-one]
area of lesion spots on the treated plant relative to that on an untreated plant: ≥ 70%
